This passage reports IC50 results from patent US20250289789A1, “REVERSIBLE LYSINE COVALENT MODIFIERS OF CDK2 AND USES THEREOF” (Terremoto Biosciences, Inc., priority 2023, published 2025).

Assay type in all cases: cell-based
In experiment [1] the target is T1, CDK4-NanoLuc fusion with CCND1 in 293T or 293 cells (Homo sapiens, UniProt P11802).
T1 construct: host or cells: 293T (ATCC CRL-3216) or 293 (ATCC CRL-1573)
The experiment can be described thus: NanoBRET Target Engagement (TE) Intracellular Kinase Assay, CDK4/CCND1. The conditions noted are these: NanoBRET TE intracellular kinase assay, 2-hour incubation, read-out: NanoBRET-CDK4/D1 IC50.

For experiment [2], the target named is T2, CDK2-NanoLuc fusion with CCNE1 in 293T or 293 cells (Homo sapiens, UniProt P24941).
T2 construct: host or cells: 293T (ATCC CRL-3216) or 293 (ATCC CRL-1573)
Description: NanoBRET Target Engagement (TE) Intracellular Kinase Assay, CDK2/CCNE1. The following applies: NanoBRET TE intracellular kinase assay, 2-hour incubation, read-out: NanoBRET-CDK2/E1 IC50. In general terms: In BRET a luciferase serves as donor, and the signal depends on an acceptor being close.

The subject of experiment [3] is Phospho-Rb Ser807/811 in OVCAR3 cells. The experiment can be described thus: OVCAR3 Phospho-Rb Ser807/811 HTRF assay. The following applies: Homo sapiens, OVCAR-3, 1 h, read-out: pRb-OVCAR3 IC50. How it is done:
Cells were trypsinized and resuspended in 1 mM hydroxyurea (Sigma; H8627), 90% RPMI and 10% fetal bovine serum. […] Dose response curve normalized to DMSO control was plotted using four-parameter logistic model for IC50 calculation.

Experiment [4] addresses T3, CDK1-NanoLuc fusion with CCNB1 in 293T or 293 cells (Homo sapiens, UniProt P06493).
T3 construct: host or cells: 293T (ATCC CRL-3216) or 293 (ATCC CRL-1573)
Description: NanoBRET Target Engagement (TE) Intracellular Kinase Assay, CDK1/CCNB1. The conditions noted are these: NanoBRET TE intracellular kinase assay, 2-hour incubation, read-out: NanoBRET-CDK1/B1 IC50. A digest of the protocol: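 IC50 derived by four-parameter logistic fit of DMSO-normalized acceptor/donor (610/450 nm) BRET ratio. Compound and Tracer K-10 were applied together for 2 h at 37° C to 293 or 293T cells transfected 24 h earlier with CDK1-NanoLuc fusion and cyclin B1.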

Where [5] appears, read: OVCAR3 cells, Phospho-Rb Ser807/811 HTRF, 1 hour incubation.

Like-named read-outs stand apart in the source and are kept apart here.

T3 sequence (P06493 whole entry, the tested form may be a part): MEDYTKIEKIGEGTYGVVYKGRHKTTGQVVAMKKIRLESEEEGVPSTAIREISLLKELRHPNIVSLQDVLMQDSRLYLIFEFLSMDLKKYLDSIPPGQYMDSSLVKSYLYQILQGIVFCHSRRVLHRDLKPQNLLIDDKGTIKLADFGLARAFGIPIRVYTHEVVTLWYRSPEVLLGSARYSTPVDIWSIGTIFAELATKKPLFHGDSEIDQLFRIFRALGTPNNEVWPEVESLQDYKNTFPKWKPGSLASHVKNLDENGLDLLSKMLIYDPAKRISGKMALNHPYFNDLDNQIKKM
T3 sequence (P14635 whole entry partner, the tested form may be a part): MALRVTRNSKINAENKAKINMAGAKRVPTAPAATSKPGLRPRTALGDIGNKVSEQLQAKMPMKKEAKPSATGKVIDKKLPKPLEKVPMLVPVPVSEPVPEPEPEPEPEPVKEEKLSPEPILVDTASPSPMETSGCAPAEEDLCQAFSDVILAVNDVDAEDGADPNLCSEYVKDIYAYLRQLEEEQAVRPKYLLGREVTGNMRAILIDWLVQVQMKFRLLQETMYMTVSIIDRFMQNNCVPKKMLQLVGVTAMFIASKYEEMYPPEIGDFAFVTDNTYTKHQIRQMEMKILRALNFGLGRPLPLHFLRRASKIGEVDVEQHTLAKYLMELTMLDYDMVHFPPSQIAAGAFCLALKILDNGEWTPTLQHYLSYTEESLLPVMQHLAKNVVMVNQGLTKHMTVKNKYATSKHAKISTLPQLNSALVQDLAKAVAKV
T1 sequence (P11802 whole entry, the tested form may be a part): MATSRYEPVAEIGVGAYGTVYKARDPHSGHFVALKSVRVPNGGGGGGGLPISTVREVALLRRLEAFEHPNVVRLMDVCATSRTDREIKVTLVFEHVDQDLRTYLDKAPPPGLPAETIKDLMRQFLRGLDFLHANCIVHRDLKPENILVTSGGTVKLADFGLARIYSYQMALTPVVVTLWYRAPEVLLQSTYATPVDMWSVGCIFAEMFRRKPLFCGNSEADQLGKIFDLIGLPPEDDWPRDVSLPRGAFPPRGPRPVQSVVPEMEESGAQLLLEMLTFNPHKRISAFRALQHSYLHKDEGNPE
T1 sequence (P24385 whole entry partner, the tested form may be a part): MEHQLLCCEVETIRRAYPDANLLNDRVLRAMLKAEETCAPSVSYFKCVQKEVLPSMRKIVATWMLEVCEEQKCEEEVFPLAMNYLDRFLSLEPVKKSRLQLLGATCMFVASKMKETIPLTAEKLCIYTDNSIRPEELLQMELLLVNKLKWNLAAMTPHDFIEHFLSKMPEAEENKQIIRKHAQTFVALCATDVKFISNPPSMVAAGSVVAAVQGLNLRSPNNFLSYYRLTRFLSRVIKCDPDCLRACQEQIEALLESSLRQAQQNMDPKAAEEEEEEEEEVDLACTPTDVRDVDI

Turning to `CC(C)NC(=O)O[C@@H]1CC[C@H](c2cc(NC(=O)c3cc(-c4cccc(O)c4C=O)nn3C3CC3)n[nH]2)C1` [Compound 61, (1R,3S)-3-(3-(1-cyclopropyl-3-(2-formyl-3-hydroxyphenyl)-1H-pyrazole-5-carboxamido)-1H-pyrazol-5-yl)cyclopentyl isopropylcarbamate], the IC50 in experiment [1] came out at 2890 nM; in experiment [2], 6.27 nM; in experiment [3] (setting [5]), 477 nM; in experiment [4], 36.1 nM.

As to `CC(C)NC(=O)O[C@@H]1CC[C@H](c2cc(NC(=O)C3Cc4ccc(O)c(C=O)c4O3)n[nH]2)C1` (stereo partly drawn) [Compound 62, (1R,3S)-3-(3-(7-formyl-6-hydroxy-2,3-dihydrobenzo-furan-2-carboxamido)-1H-pyrazol-5-yl)cyclopentyl isopropylcarbamate], the IC50 was 7230 nM in experiment [1], 34.4 nM in experiment [2], 1870 nM in experiment [3] (setting [5]) and 270 nM in experiment [4].

On to `CC(C)NC(=O)O[C@@H]1CC[C@H](c2cc(NC(=O)OCc3cccc(O)c3C=O)n[nH]2)C1` [Compound 63, (2-formyl-3-hydroxyphenyl)methyl N-{5-[(1S,3R)-3-[(isopropylcarbamoyl)oxy]cyclopentyl]-1H-pyrazol-3-yl}carbamate], for which the IC50 came out at 6320 nM in experiment [1], 9.55 nM in experiment [2], 1260 nM in experiment [3] (setting [5]) and 361 nM in experiment [4].

With `Cc1sc(-c2cccc(O)c2C=O)nc1C(=O)Nc1cc([C@H]2CC[C@@H](OC(=O)NC(C)C)C2)[nH]n1` [Compound 65, (1R,3S)-3-(3-(2-(2-formyl-3-hydroxyphenyl)-5-methylthiazole-4-carboxamido)-1H-pyrazol-5-yl)cyclopentyl isopropylcarbamate], the IC50 in experiment [1] amounted to 4630 nM; in experiment [2], 8.52 nM; in experiment [3] (setting [5]), 318 nM; in experiment [4], 28.1 nM.

Regarding `CC(C)NC(=O)O[C@@H]1CC[C@H](c2cc(NC(=O)Cc3ncc(-c4cccc(O)c4C=O)s3)n[nH]2)C1` [Compound 66, (1R,3S)-3-(5-{2-[5-(2-formyl-3-hydroxyphenyl)-1,3-thiazol-2-yl]acetamido}-2H-pyrazol-3-yl)cyclopentyl N-isopropylcarbamate; trifluoroacetic acid], the IC50 in experiment [1] came to 779 nM; in experiment [2], 8.87 nM; in experiment [3] (setting [5]) it was 1690 nM; in experiment [4], 390 nM.

As to `CC(C)NC(=O)O[C@@H]1CC[C@H](c2cc(NC(=O)Cc3cnc(-c4cccc(O)c4C=O)s3)n[nH]2)C1` [Compound 67, (1R,3S)-3-(3-(2-(2-(2-formyl-3-hydroxyphenyl)thiazol-5-yl)acetamido)-1H-pyrazol-5-yl)cyclopentyl isopropylcarbamate; trifluoroacetic acid], the IC50 in experiment [1] turned out to be 202 nM; in experiment [2] it was 6.73 nM; in experiment [3] (setting [5]) it was 475 nM; in experiment [4], 35.3 nM.

Consider `CC(C)NC(=O)O[C@@H]1CC[C@H](c2cc(NC(=O)Cc3ccc(-c4cccc(O)c4C=O)cc3)n[nH]2)C1` [Compound 68, (1R,3S)-3-[5-(2-{2′-formyl-3′-hydroxy-[1,1′-biphenyl]-4-yl}acetamido)-2H-pyrazol-3-yl]cyclopentyl N-isopropylcarbamate; trifluoroacetic acid], for which the IC50 in experiment [1] turned out to be 1150 nM; in experiment [2], 5.56 nM; in experiment [3] (setting [5]), 662 nM; in experiment [4] it was 39.2 nM.

With `Cc1ncc(Oc2cccc(O)c2C=O)nc1C(=O)Nc1cc([C@H]2CC[C@@H](OC(=O)NC(C)C)C2)[nH]n1` [Compound 70, (1R,3S)-3-{5-[6-(2-formyl-3-hydroxyphenoxy)-3-methylpyrazine-2-amido]-2H-pyrazol-3-yl}cyclopentyl N-isopropylcarbamate], the IC50 in experiment [1] came out at 699 nM; in experiment [2], 10.1 nM; in experiment [3] (setting [5]), 2680 nM; in experiment [4], 337 nM.

Take `COCc1cc(O)c(C=O)c(-c2cc(C(=O)Nc3cc([C@H]4CC[C@@H](OC(=O)NC(C)C)C4)[nH]n3)n(C)n2)c1` [Compound 71, (1R,3S)-3-(5-{5-[2-formyl-3-hydroxy-5-(methoxymethyl)phenyl]-2-methylpyrazole-3-amido}-2H-pyrazol-3-yl)cyclopentyl N-isopropylcarbamate; trifluoroacetic acid]: the IC50 was 4110 nM in experiment [1], 7.8 nM in experiment [2], 85.5 nM in experiment [3] (setting [5]) and 10.3 nM in experiment [4].

`COCc1cc(O)c(C=O)c(OCC(=O)Nc2cc([C@H]3CC[C@@H](OC(=O)NC(C)C)C3)[nH]n2)c1` [Compound 72, (1R,3S)-3-(3-(2-(2-formyl-3-hydroxy-5-(methoxymethyl)phenoxy)acetamido)-1H-pyrazol-5-yl)cyclopentyl isopropylcarbamate]: the IC50 is above 10000 nM in experiment [1], 8.38 nM in experiment [2], 477 nM in experiment [3] (setting [5]) and 436 nM in experiment [4].

For the compound `CC(C)NC(=O)O[C@@H]1CC[C@H](c2cc(NC(=O)COc3cc(Cl)cc(O)c3C=O)n[nH]2)C1` [Compound 73, (1R,3S)-3-(3-(2-(5-chloro-2-formyl-3-hydroxyphenoxy)acetamido)-1H-pyrazol-5-yl)cyclopentyl isopropylcarbamate], the IC50 in experiment [1] is above 10000 nM; in experiment [2], 26.7 nM; in experiment [3] (setting [5]), 299 nM; in experiment [4], 61 nM.

Turning to `COc1ccc(-c2cc(C(=O)Nc3cc([C@H]4CC[C@@H](OC(=O)NC(C)C)C4)[nH]n3)n(C)n2)c(C=O)c1O` [Compound 74, (1R,3S)-3-{5-[5-(2-formyl-3-hydroxy-4-methoxyphenyl)-2-methylpyrazole-3-amido]-2H-pyrazol-3-yl}cyclopentyl N-isopropylcarbamate; trifluoroacetic acid], the IC50 in experiment [1] is 3950 nM; in experiment [2], 7.06 nM; in experiment [3] (setting [5]), 523 nM; in experiment [4], 29.5 nM.

Turning to `CC(C)NC(=O)O[C@@H]1CC[C@H](c2cc(Nc3cc(C#Cc4cccc(O)c4C=O)ccn3)n[nH]2)C1` [Compound 75, (1R,3S)-3-[5-({4-[2-(2-formyl-3-hydroxyphenyl)ethynyl]pyridin-2-yl}amino)-2H-pyrazol-3-yl]cyclopentyl N-isopropylcarbamate; trifluoroacetic acid], the IC50 in experiment [1] was 224 nM; in experiment [2] it was 21.4 nM; in experiment [3] (setting [5]), 4970 nM; in experiment [4] it was 372 nM.

In the case of `COc1cc(O)c(C=O)c(Oc2ccnc(Nc3cc([C@H]4CC[C@@H](OC(=O)NC(C)C)C4)[nH]n3)c2)c1` [Compound 76, (1R,3S)-3-(3-((4-(2-formyl-3-hydroxy-5-methoxyphenoxy) 476yridine-2-yl)amino)-1H-pyrazol-5-yl)cyclopentyl isopropylcarbamate], the IC50 worked out at 6390 nM in experiment [1], 5.01 nM in experiment [2], 309 nM in experiment [3] (setting [5]) and 66 nM in experiment [4].

Turning to `COc1cc(O)c(C=O)c(OCc2cc(C(=O)Nc3cc([C@H]4CC[C@@H](OC(=O)NC(C)C)C4)[nH]n3)n(C)n2)c1` [Compound 77], the IC50 in experiment [1] amounted to 44.3 nM; in experiment [2] it was 3.05 nM; in experiment [3] (setting [5]), 46.5 nM; in experiment [4], 8.93 nM.

For the compound `CC(C)NC(=O)O[C@@H]1CC[C@H](c2cc(NC(=O)N3CC=C(c4cccc(O)c4C=O)C3)n[nH]2)C1` [Compound 78, (1R,3S)-3-(3-(3-(2-formyl-3-hydroxyphenyl)-2,5-dihydro-1H-pyrrole-1-carboxamido)-1H-pyrazol-5-yl)cyclopentyl isopropylcarbamate], the IC50 in experiment [1] was above 10000 nM; in experiment [2] it was 16.7 nM; in experiment [3] (setting [5]), 1190 nM; in experiment [4] it was 142 nM.

For `COc1cc(O)c(C=O)c(-n2cc(CC(=O)Nc3cc([C@H]4CC[C@@H](OC(=O)NC(C)C)C4)[nH]n3)cn2)c1` [Compound 79, (1R,3S)-3-(5-{2-[1-(2-formyl-3-hydroxy-5-methoxyphenyl)pyrazol-4-yl]acetamido}-2H-pyrazol-3-yl) cyclopentyl N-isopropylcarbamate], the IC50 in experiment [1] is 727 nM; in experiment [2], 14.2 nM; in experiment [3], 505 nM; in experiment [4], 47 nM.

Regarding `COc1ccc(OCC(=O)Nc2cc([C@H]3CC[C@@H](OC(=O)NC(C)C)C3)[nH]n2)c(C=O)c1O` [Compound 80, (1R,3S)-3-{5-[2-(2-formyl-3-hydroxy-4-methoxyphenoxy)acetamido]-2H-pyrazol-3-yl}cyclopentyl N-isopropylcarbamate], the IC50 is above 10000 nM in experiment [1], 25.4 nM in experiment [2], 132 nM in experiment [3] (setting [5]) and 37.3 nM in experiment [4].

With `CCCNC(=O)O[C@@H]1CC[C@H](c2cc(NC(=O)COc3cccc(O)c3C=O)n[nH]2)C1` [Compound 81, (1R,3S)-3-{5-[2-(2-formyl-3-hydroxyphenoxy)acetamido]-2H-pyrazol-3-yl}cyclopentyl N-propylcarbamate; trifluoroacetic acid], the IC50 in experiment [1] is above 10000 nM; in experiment [2], 2.3 nM; in experiment [3] (setting [5]), 119 nM; in experiment [4], 18.8 nM.
